Here are results for 14 molecules from patent US8686130B2, “Artificial fluorescent bases” (Riken, priority 2009, dated 2014).

Each structure is given as a SMILES string. Where “and” joins values, the source holds several entries; their conditions need not be identical. Identical values can stand only once. Like-named read-outs stand apart in the source and are kept apart here.

Series [1] in a line: Fluorescence characteristics of base analog nucleosides. The format is physicochemical. Particulars: for Fluorescence emitted by excitation at a wavelength of 350 nm or more: excitation 350 nm or more; for Absorption maximum / Fluorescence intensity (ε × φ) / Fluorescence wavelength / Molar absoption coefficient ε / Stokes shift / Excitation wavelength: deoxyribonucleoside derivative; for Quantum yield (φ): quinine sulfate as a standard. As to the method: Reagents and solvents were purchased from typical suppliers and were used without further purification. ^1H-NMR (300 MHz, 270 MHz) and ^31P-NMR (121 MHz) spectra were recorded on a BRUKER AV300 or JEOL nuclear magnetic resonance spectrometer. Synthesized nucleoside derivatives and nucleoside 5′-triphosphate were purified with a Gilson HPLC system using a fractionation column (Waters Microbond Sphere, C18, 19 mm×150 mm, flow rate: 10 mL/min) and a fractionation column (PEGASIL C8, Senshu Scientific Co., Ltd., 10 mm×150 mm, flow rate: 6 mL/min), respectively. Electrospray-ionization mass spectra (ESI-MS) were recorded on a Waters ZMD 4000 mass system equipped with a Waters 2690 LC system. Fluorescence spectra were measured with a JASCO FP6500 fluorescence spectrometer, and fluorescence quantum yields were determined using quinine sulfate as a standard.
Fluorescence characteristics of nucleosides including an unnatural base, ss, sss, Dss, Dsss, Dsas, Dsav, or Dvas, were evaluated. For comparison, fluorescence characteristics of nucleosides including known unnatural bases, 2-aminopurine, s (2-amino-6-(2-thienyl)purin-9-yl group), v (2-amino-6-(2-thiazolyl)purin-9-yl group), and Ds (7-(2-thienyl)imidazo[4,5-b]pyridin-3-yl group) were also evaluated.

For series [2] the following is noted: cited from earlier work.
The target of another series is T7 RNA polymerase (Escherichia phage T7, UniProt P00573). Conditions: 0.05 to 0.1 mM substrate, 1 mM natural NTPs, 37° C., 3 hr.
Another series addresses Klenow fragment (exo+) (Escherichia coli, UniProt P00582). Particulars: 0.5 μM dDssTP with 10 μM natural base substrate, 37° C.
Setting [3] is: from Ward et al., J. Biol. Chem. 1969.

Sequence of T7 RNA polymerase (P00573 whole entry, the tested form may be a part): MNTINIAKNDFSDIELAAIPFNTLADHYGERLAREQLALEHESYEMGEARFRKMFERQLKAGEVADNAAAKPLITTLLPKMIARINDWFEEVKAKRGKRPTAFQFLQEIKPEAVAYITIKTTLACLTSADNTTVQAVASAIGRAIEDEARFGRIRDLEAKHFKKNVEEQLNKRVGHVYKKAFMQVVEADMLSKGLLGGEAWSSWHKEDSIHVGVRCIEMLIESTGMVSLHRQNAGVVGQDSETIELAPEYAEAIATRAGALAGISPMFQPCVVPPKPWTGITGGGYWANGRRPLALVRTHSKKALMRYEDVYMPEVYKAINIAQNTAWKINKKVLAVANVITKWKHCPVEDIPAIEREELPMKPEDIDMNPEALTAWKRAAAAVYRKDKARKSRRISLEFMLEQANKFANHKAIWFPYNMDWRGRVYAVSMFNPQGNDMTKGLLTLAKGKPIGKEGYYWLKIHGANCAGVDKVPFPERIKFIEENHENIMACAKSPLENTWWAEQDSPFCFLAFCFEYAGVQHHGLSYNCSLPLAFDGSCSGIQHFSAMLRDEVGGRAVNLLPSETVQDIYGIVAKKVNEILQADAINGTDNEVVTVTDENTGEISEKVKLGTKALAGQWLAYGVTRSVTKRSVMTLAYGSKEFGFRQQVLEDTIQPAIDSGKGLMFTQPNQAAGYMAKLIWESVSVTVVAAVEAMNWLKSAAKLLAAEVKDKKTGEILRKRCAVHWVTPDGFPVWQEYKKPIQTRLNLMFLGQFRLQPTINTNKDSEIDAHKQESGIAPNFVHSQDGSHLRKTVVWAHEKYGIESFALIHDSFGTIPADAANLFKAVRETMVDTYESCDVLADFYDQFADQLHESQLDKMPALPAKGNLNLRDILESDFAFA
Sequence of Klenow fragment (exo+) (P00582 324-928): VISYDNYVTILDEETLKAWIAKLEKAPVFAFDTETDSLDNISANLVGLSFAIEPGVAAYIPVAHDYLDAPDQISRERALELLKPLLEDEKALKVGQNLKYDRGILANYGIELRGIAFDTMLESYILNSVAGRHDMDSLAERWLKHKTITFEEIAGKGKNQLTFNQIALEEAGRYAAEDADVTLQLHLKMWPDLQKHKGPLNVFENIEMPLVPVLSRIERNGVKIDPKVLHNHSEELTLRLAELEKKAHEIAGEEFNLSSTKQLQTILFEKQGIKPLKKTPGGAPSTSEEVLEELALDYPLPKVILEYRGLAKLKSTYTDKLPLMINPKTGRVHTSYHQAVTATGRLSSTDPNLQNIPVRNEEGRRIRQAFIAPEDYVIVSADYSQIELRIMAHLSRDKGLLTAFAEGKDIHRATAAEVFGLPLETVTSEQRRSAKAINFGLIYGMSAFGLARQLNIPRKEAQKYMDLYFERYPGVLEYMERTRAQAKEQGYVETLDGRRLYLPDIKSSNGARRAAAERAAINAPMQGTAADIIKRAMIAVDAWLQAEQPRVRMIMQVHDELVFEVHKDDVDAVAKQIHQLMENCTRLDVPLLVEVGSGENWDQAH
Description for Klenow fragment (exo+): Template strand DNA (SEQ ID NO: 1,35-mer, 400 nM) dissolved in 2× reaction buffer (20 mM tris-HCl, pH 7.5, 14 mM MgCl2, 0.2 mM DTT) and a primer labeled with ^32P at the 5′-end (SEQ ID NO: 2,23-mer, 400 nM) were heated at 95° C. for 3 min and then slowly cooled for annealing to form a double strand. To each 5 μL of the resulting double-stranded DNA solution, 2.5 μL of a 4×dNTP solution mixture (40 μM dTTP, 40 μM dCTP, 0 to 40 μM dDssTP) and 2.5 μL (1 unit) of Klenow fragment (Takara Shuzo Co., Ltd.) diluted with water were added to start the enzyme reaction at 37° C. After incubation at 37° C., the reaction was terminated by addition of a TBE solution containing 10 μL of 10 M urea and heating at 75° C. for 3 min. A part of the reaction solution was subjected to electrophoresis with 15% polyacrylamide-7 M urea gel and analyzed with a bio-imaging analyzer (FLA7000, Fujifilm Corporation).
Description for T7 RNA polymerase: Templates for transcription by the T7 polymerase were prepared by heating chemically synthesized two DNA strands (10 μM coding strand (SEQ ID NO: 4) of 35-mer and non-coding strand (SEQ ID NO: 5) of 21-mer) at 95° C. in a 10 mM Tris-HCl buffer (pH 7.6) containing 10 mM NaCl and then slowly cooled to 4° C. for annealing. The transcription by the T7 polymerase was performed by using 2 μM of the template and 50 units of a T7 RNA polymerase (Takara Shuzo Co., Ltd., Kyoto) in a 40 mM Tris-HCl buffer (pH 8.0, 20 μL) containing 24 mM MgCl2, 2 mM spermidine, 5 mM DTT, and 0.01% Triton X-100 in the presence of 1 mM natural NTPs, 0.05 to 0.1 mM ssTP or DssTP (ribonucleoside 5′-triphosphate of ss or Dss). After the reaction at 37° C. for 3 hr, the reaction was terminated by addition of a dye solution (20 μL) containing 10 M urea and 0.05% BPB. […] The transcription product was protected by placing the gel on a TLC containing a fluorescent indicator, irradiating the gel with UV of 254 nm, and photographing the image with a Polaroid camera utilizing the phenomenon that nucleic acid absorbs the UV and thereby the band of the transcription product is detected as an image. The transcript including the unnatural fluorescent base ss or Dss was detected with a bio-imaging analyzer, LAS 4000 (Fujifilm Corporation) utilizing epi-UV LED.

For the molecule `Nc1ncc2[nH]cnc2n1` [2-aminopurine], the “Fluorescence emitted by excitation at a wavelength of 350 nm or more” value in series [1] was “considerably low”. In series [2] (setting [3]), the Absorption maximum was 304 nm, the Excitation wavelength entry is “about 300 nm”, the “Fluorescence intensity (ε × φ)” value was 4828 and the Fluorescence wavelength is listed as 370 nm. Besides, in series [2] (setting [3]), the “Molar absoption coefficient ε” value was 7100 M⁻¹ cm⁻¹, the “Quantum yield (φ)” value was 0.68 and the Stokes shift was 67 nm. In addition, in series [2] (from Ward et al., J. Biol. Chem. 1969, listed as 2-aminoprine), the Excitation wavelength is 303 nm.
On to `O=P(O)(O)OP(=O)(O)OP(=O)(O)OC[C@H]1O[C@@H](n2cnc3c(-c4ccc(-c5cccs5)s4)ccnc32)[C@H](O)[C@@H]1O` [DssTP, 7-(2,2′-bithien-5-yl)-3-(β-D-ribofuranosyl)imidazo[4,5-b]pyridine 5′-triphosphate], for which the “Incorporation into RNA opposite Pa in template DNA” value on T7 RNA polymerase is “selectively incorporated into RNA depending on Pa”.
With `OC[C@H]1O[C@@H](n2cnc3c(-c4cccs4)ccnc32)C[C@@H]1O` [dDs, reference compound], in series [1], the Absorption maximum was determined as 313 nm, the “Fluorescence intensity (ε × φ)” value stood at 4180, the Fluorescence wavelength came out at 366 nm and the “Molar absoption coefficient ε” value was determined as 22000 M⁻¹ cm⁻¹. Also, in series [1], the Stokes shift is 54 nm, the “Fluorescence emitted by excitation at a wavelength of 350 nm or more” value is on record as “does not emit light” and the “Quantum yield (φ)” value was found to be 0.19.
Turning to `OC[C@H]1O[C@@H](n2ccc3c(-c4ccc(-c5cccs5)s4)ccnc32)C[C@@H]1O` [dDsas, 1-[2-deoxy-β-D-ribofuranosyl]-4-(2,2′-bithien-5-yl)-pyrrolo[2,3-b]pyridine], in series [1], the Absorption maximum was 365 nm, the Excitation wavelength stood at 367 nm, the “Fluorescence intensity (ε × φ)” value was 2795 and the Fluorescence wavelength was found to be 451 nm. Besides, in series [1], the “Molar absoption coefficient ε” value worked out at 21500 M⁻¹ cm⁻¹, the Stokes shift came out at 84 nm and the “Quantum yield (φ)” value is reported as 0.13.
`OC[C@H]1O[C@@H](n2ccc3c(-c4ccc(-c5nccs5)s4)ccnc32)C[C@@H]1O` [dDsav, 1-[2-deoxy-β-D-ribofuranosyl]-4-[2-(2-thiazolyl)thien-5-yl]pyrrolo[2,3-b]pyridine]: in series [1], the Absorption maximum is 365 nm, the Excitation wavelength came to 368 nm, the “Fluorescence intensity (ε × φ)” value is recorded as 2795 and the Fluorescence wavelength was 445 nm. Also, in series [1], the “Molar absoption coefficient ε” value came out at 21500 M⁻¹ cm⁻¹, the Stokes shift was determined as 77 nm and the “Quantum yield (φ)” value is 0.13.
Turning to `OC[C@H]1O[C@@H](n2cnc3c(-c4ccc(-c5cccs5)s4)ccnc32)C[C@@H]1O` [dDss, 7-(2,2′-bithien-5-yl)-3-(2-deoxy-β-D-ribofuranosyl)imidazo[4,5-b]pyridine], in series [1], the Absorption maximum is reported as 370 nm, the Excitation wavelength was found to be 371 nm, the “Fluorescence intensity (ε × φ)” value amounted to 10400 and the Fluorescence wavelength is listed as 442 nm. Moreover, in series [1], the “Molar absoption coefficient ε” value worked out at 32500 M⁻¹ cm⁻¹, the Stokes shift amounted to 71 nm and the “Quantum yield (φ)” value was found to be 0.32.
Turning to `O=P(O)(O)OP(=O)(O)OP(=O)(O)OC[C@H]1O[C@@H](n2cnc3c(-c4ccc(-c5cccs5)s4)ccnc32)C[C@@H]1O` [dDssTP, 7-(2,2′-bithien-5-yl)-3-(2-deoxy-β-D-ribofuranosyl)imidazo[4,5-b]pyridine 5′-triphosphate], at Klenow fragment (exo+), the “Incorporation into DNA opposite Pa in template DNA” value was “selectively incorporated into a complementary DNA strand”.
In the case of `OC[C@H]1O[C@@H](n2cnc3c(-c4ccc(-c5ccc(-c6cccs6)s5)s4)ccnc32)C[C@@H]1O` [dDsss, 7-(2,2′,5′,2″-terthien-5-yl)-3-(2-deoxy-β-D-ribofuranosyl)imidazo[4,5-b]pyridine], in series [1], the Absorption maximum stood at 403 nm, the Excitation wavelength is reported as 407 nm, the “Fluorescence intensity (ε × φ)” value was determined as 3132 and the Fluorescence wavelength came to 489 nm. In series [1], the “Molar absoption coefficient ε” value came to 34800 M⁻¹ cm⁻¹, the Stokes shift came out at 82 nm and the “Quantum yield (φ)” value was 0.09.
In the case of `OC[C@H]1O[C@@H](n2ccc3c(-c4ncc(-c5cccs5)s4)ccnc32)C[C@@H]1O` [dDvas, 1-[2-deoxy-β-D-ribofuranosyl]-4-[5-(2-thienyl)thiazol-2-yl]pyrrolo[2,3-b]pyridine], in series [1], the Absorption maximum came out at 377 nm, the Excitation wavelength was 378 nm, the “Fluorescence intensity (ε × φ)” value is given as 3780 and the Fluorescence wavelength is 449 nm. Moreover, in series [1], the “Molar absoption coefficient ε” value came to 27000 M⁻¹ cm⁻¹, the Stokes shift was found to be 71 nm and the “Quantum yield (φ)” value is reported as 0.14.
`c1csc(-c2ccnc3nc[nH]c23)c1` [ds, 7-(2-thienyl)-imidazo[4,5-b]pyridine, reference compound]: in series [1], the Absorption maximum amounted to 353 nm; the Excitation wavelength is 350 nm and 351 nm; the “Fluorescence intensity (ε × φ)” value is on record as 2576; the Fluorescence wavelength was 429 nm. Further, in series [1], the “Molar absoption coefficient ε” value was found to be 11200 M⁻¹ cm⁻¹, the Stokes shift is given as 78 nm and the “Quantum yield (φ)” value is given as 0.23. Moreover, in series [2] (background art), the “Fluorescence by excitation at a wavelength of 350 nm or more” value is on record as “substantially invisible to the naked eye”.
On to `Nc1nc(-c2ccc(-c3ccc(-c4cccs4)s3)s2)c2ncn([C@H]3C[C@H](O)[C@@H](CO)O3)c2n1` [dsss, 2-amino-6-(2,2′,5′,2″-terthien-5-yl)-9-(2-deoxy-β-D-ribofuranosyl)purine], for which, in series [1], the Absorption maximum worked out at 414 nm, the Excitation wavelength came out at 419 nm, the “Fluorescence intensity (ε × φ)” value worked out at 4928 and the Fluorescence wavelength turned out to be 508 nm. Further, in series [1], the “Molar absoption coefficient ε” value stood at 44800 M⁻¹ cm⁻¹, the Stokes shift worked out at 89 nm and the “Quantum yield (φ)” value is 0.11.
Consider `Nc1nc(-c2nccs2)c2ncn([C@H]3C[C@H](O)[C@@H](CO)O3)c2n1` [dv, reference compound], for which the “Stability of nucleoside derivative under basic conditions” value is given as “low stability”. Besides, in series [1], the Absorption maximum is reported as 363 nm; the Excitation wavelength was 363 nm and 357 nm; the “Fluorescence intensity (ε × φ)” value was 3444; the Fluorescence wavelength came out at 461 nm. Moreover, in series [1], the “Molar absoption coefficient ε” value came out at 8400 M⁻¹ cm⁻¹, the Stokes shift was 104 nm and the “Quantum yield (φ)” value is given as 0.41.
For the molecule `Nc1nc(-c2cccs2)c2[nH]cnc2n1` [s, 2-amino-6-thienylpurine], in series [2] (background art), the Fluorescence wavelength was 435 nm and the Maximum excitation wavelength is given as 348 nm.
Consider `Nc1nc(-c2ccc(-c3cccs3)s2)c2ncn([C@@H]3O[C@H](COP(=O)(O)OP(=O)(O)OP(=O)(O)O)[C@@H](O)[C@H]3O)c2n1` [ssTP], for which the “Incorporation into RNA opposite Pa in template DNA” value on T7 RNA polymerase is reported as “selectively incorporated into RNA depending on Pa”.
